Assay [1] concerns the target T1, beta-catenin/TCF4 engagement (Homo sapiens, UniProt P35222).
T1 construct: expressed in transfected cells; host or cells: HEK293
T1 sequence (P35222 1-781): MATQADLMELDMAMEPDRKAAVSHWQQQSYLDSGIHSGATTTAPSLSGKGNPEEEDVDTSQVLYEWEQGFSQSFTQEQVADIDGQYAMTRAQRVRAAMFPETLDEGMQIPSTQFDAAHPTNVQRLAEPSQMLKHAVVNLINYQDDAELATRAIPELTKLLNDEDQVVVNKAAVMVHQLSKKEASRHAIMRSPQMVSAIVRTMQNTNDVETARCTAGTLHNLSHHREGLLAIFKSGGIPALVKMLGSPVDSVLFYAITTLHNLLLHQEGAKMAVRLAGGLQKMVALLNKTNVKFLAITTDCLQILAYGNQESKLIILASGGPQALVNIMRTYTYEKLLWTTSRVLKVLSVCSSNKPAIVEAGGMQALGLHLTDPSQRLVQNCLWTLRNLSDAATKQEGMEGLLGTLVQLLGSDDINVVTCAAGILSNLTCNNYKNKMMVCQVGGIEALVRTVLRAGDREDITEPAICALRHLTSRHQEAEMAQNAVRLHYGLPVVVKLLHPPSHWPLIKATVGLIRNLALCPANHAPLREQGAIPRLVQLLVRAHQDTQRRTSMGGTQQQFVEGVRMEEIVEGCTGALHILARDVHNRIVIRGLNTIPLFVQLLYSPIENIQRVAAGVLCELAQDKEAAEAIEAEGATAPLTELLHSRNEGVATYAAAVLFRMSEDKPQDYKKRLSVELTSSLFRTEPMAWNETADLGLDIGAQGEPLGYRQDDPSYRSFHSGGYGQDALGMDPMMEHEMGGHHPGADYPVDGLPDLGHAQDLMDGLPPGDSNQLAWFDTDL
As to the kind of experiment: Nano-BRET target engagement assay (B-cat-Halo & TCF4-Luc in HEK293 cells). Format: cell-based. For orientation: In BRET a luciferase serves as donor, and the signal depends on an acceptor being close.

Assay [2] deals with TCF/LEF luciferase Reporter in DLD1 cells. In words: TCF reporter assay (DLD1 TCF/LEF luciferase reporter, Bright-Glo). The note with it: read-out: DLD1 4% Abs IC50. Format: cell-based. A digest of the protocol: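 DLD1 cells stably carrying a TCF/LEF luciferase reporter were plated at 5000 cells/well in RPMI + 4% FBS and treated overnight with a 1:2 compound dilution series. Bright-Glo luminescence read on day 3; viability by CellTiter-Glo. Absolute IC50 determined.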

A further assay concerns COLO320DM cells. Format: cell-based. The following applies: COLO320DM cells, read-out: COLO320DM Proliferation Abs IC50. As for the experimental part:
COLO320DM proliferation assay IC50: In some embodiments, inhibition of cell proliferation by provided technologies were assessed using cell lines related to or from certain conditions, disorders or diseases. In some embodiments, cell proliferation was assessed in COLO320DM cells. In some embodiments, assessment was performed using the following procedure: On Day 1, cultured COLO320DM cells in a T75 flask were trypsinized in 3 mL of 0.25% trypsin/EDTA for 5 min and quenched with 10 mL RPMI-1640+4% HI FBS assay media. The cells were spun down at 1200 rpm for 5 min, the cell pellet collected and re-suspended at 5000 cells/mL in assay media. Using a Combi liquid handler, cells were dispensed (50 uL, 250 cells/well) into three 384 well plates. Plates were incubated at 37° C., […]. On day 2, compounds were added. A liquid handling system was used to prepare the compound dilution and dispense compound into assay plates. The compounds were serially diluted 1/2 in 90% DMSO to create a 7 point dose curve. From compound plate, 100 nL of compound were dispensed directly into wells of the assay plates to create a dose curve starting at 20 uM and ending at 313 nM. Assay plates were incubated at 37° C., […]. On day 6, assay plates were removed from the incubator and allowed to sit at room temperature for 30 min. Using a liquid handler, 20 uL of CellTiter Glo reagent was added to each well. The assay plates were shaken for 2 min and allowed to sit on the bench for 10-15 minutes. The assay plates were read using the CellTiter Glo protocol on a GloMax microplate reader, and the data analyzed using GraphPad Prism.

Assay [3] addresses T2, full-length beta-Catenin (Uniprot ID P35222) (Homo sapiens, UniProt P35222).
T2 construct: 10 nM full-length beta-Catenin (Uniprot ID P35222)
T2 sequence (P35222 1-781): T1 sequence (P35222 1-781)
In words: Fluorescence polarization IC50 (beta-catenin / 5FAM-TCF4 10-53 competition). It is filed as binding. The following applies: fluorescence polarization; read-out: beta-Catenin FP IC50.

Setting [4] is: DLD1 reporter, 4%, absolute IC50.
The mark [5] stands for this setting: absolute IC50, read-out: NanoBRET Abs IC50.

Where two headings read alike, the source gives them in different places. Bounds are passed on as bounds.

For the compound `CC(=O)N1CCC[C@]12CC=CCCCC1(CCCC=CCCCOC(=O)N3CC[C@@](C(=O)N[C@@H](Cc4ccsc4)C(=O)N[C@@H](Cc4csc5ccccc45)C(=O)N[C@@H](CC(N)=O)C(=O)N[C@@H](CC(C)C)C(=O)N[C@@H](CC(C)C)C(=O)N[C@@H](CC(C)C)C(=O)N[C@@H](CC(C)C)C(=O)N[C@@H](CC(C)C)C(N)=O)(C3)NC(=O)[C@H](CC(C)C)NC(=O)[C@H](Cc3ccccc3)NC(=O)[C@H](C)NC(=O)[C@H](C)NC(=O)[C@H](Cc3cccc(C(=O)O)c3)NC(=O)[C@H](CC(=O)O)NC1=O)NC(=O)[C@H](CC(C)(C)C)NC(=O)[C@H](CC(=O)O)NC2=O` (single isomer, unassigned) [I-2280, Ac-PL3-Asp-Npg-B5-Asp-3COOHF-Ala-Ala-Phe-Leu-PyrS2-3Thi-BztA-Asn-Leu-Leu-Leu-Leu-Leu-NH2], the IC50 in assay [1] (NanoBRET Abs IC50 (uM), absolute IC50) was more than 20 µM; in assay [2] (setting [4]), more than 20000 nM; in the assay with COLO320DM cells (absolute IC50) it was more than 20000 nM.

Turning to `CC(=O)N1CCC[C@]12CC=CCCCC1(CCCC=CCCCOC(=O)N3CC[C@@](C(=O)N[C@@H](Cc4ccsc4)C(=O)N[C@@H](Cc4csc5ccccc45)C(=O)N[C@@H](CCC(N)=O)C(N)=O)(C3)NC(=O)[C@H](CC(C)C)NC(=O)[C@H](Cc3ccccc3)NC(=O)[C@H](C)NC(=O)[C@H](C)NC(=O)[C@H](Cc3cccc(C(=O)O)c3)NC(=O)[C@H](CC(=O)O)NC1=O)NC(=O)[C@H](CC(C)(C)C)NC(=O)[C@H](CC(=O)O)NC2=O` (stereo partly drawn) [I-1462, Ac-PL3-Asp-Npg-B5-Asp-3COOHF-Ala-Ala-Phe-Leu-PyrS2-3Thi-BztA-Gln-NH2], the IC50 in assay [3] is 8 nM; in assay [1] (setting [5]) it was 2.3 µM; in assay [2] (setting [4]), 2700 nM; in the assay with COLO320DM cells (absolute IC50) it was 8400 nM.

Consider `CC(=O)N1CCC[C@]12CC=CCCCC1(CCCC=CCCCOC(=O)N3CC[C@@](C(=O)N[C@@H](Cc4ccccc4Cl)C(=O)N[C@@H](Cc4csc5ccccc45)C(=O)N[C@@H](CC(N)=O)C(=O)N[C@@H](C)C(=O)N[C@@H](C)C(=O)N[C@H](C)C(N)=O)(C3)NC(=O)[C@H](CC(C)C)NC(=O)[C@H](Cc3ccccc3)NC(=O)[C@H](C)NC(=O)[C@H](C)NC(=O)[C@H](Cc3cccc(C(=O)O)c3)NC(=O)[C@H](CC(=O)O)NC1=O)NC(=O)[C@H](CC(C)(C)C)NC(=O)[C@H](CC(=O)O)NC2=O` (stereo partly drawn) [I-2041, Ac-PL3-Asp-Npg-B5-Asp-3COOHF-Ala-Ala-Phe-Leu-PyrS2-2C1F-BztA-Asn-Ala-Ala-dAla-NH2], for which the IC50 in assay [3] was 16 nM; in assay [1] (read-out: NanoBRET Abs IC50), 2.3 µM; in assay [2] (DLD1 4%), 1900 nM; in the assay with COLO320DM cells, more than 20000 nM.

In the case of `CC(=O)N1CCC[C@]12CC=CCCCC1(CCCC=CCCCOC(=O)N3CC[C@@](C(=O)N[C@@H](Cc4ccsc4)C(=O)N[C@@H](Cc4csc5ccccc45)C(=O)N[C@@H](CC(N)=O)C(N)=O)(C3)NC(=O)[C@H](CC(C)C)NC(=O)[C@H](Cc3ccccc3)NC(=O)[C@H](C)NC(=O)[C@H](C)NC(=O)[C@H](Cc3cccc(C(=O)O)c3)NC(=O)[C@H](CC(=O)O)NC1=O)NC(=O)[C@H](CC(C)(C)C)NC(=O)[C@H](CC(=O)O)NC2=O` (stereo partly drawn) [I-2043, Ac-PL3-Asp-Npg-B5-Asp-3COOHF-Ala-Ala-Phe-Leu-PyrS2-3Thi-BztA-Asn-NH2], the IC50 in assay [3] turned out to be 8 nM; in assay [1] (read-out: NanoBRET Abs IC50) it was 2.8 µM; in assay [2] (DLD1 4%), 1000 nM; in the assay with COLO320DM cells, 15200 nM.

For `CC(=O)N1CCC[C@]12CC=CCCCC1(CCCC=CCCCOC(=O)N3CC[C@@](C(=O)N[C@@H](Cc4ccccc4C(F)(F)F)C(=O)N[C@@H](Cc4csc5ccccc45)C(=O)N[C@@H](C)C(N)=O)(C3)NC(=O)[C@H](CC(C)C)NC(=O)[C@H](Cc3ccccc3)NC(=O)[C@H](C)NC(=O)[C@H](CCC(N)=O)NC(=O)[C@H](Cc3cccc(C(=O)O)c3)NC(=O)[C@H](CC(=O)O)NC1=O)NC(=O)[C@H](CC(C)(C)C)NC(=O)[C@H](CC(=O)O)NC2=O` (stereo partly drawn) [I-2057, Ac-PL3-Asp-Npg-B5-Asp-3COOHF-Gln-Ala-Phe-Leu-PyrS2-2F3MeF-BztA-Ala-NH2], the IC50 in assay [3] was 17 nM; in assay [2] (DLD1 4%) it was 4000 nM; in the assay with COLO320DM cells it was more than 20000 nM.

With `CC(=O)N1CCN(C(=O)CC[C@@H]2NC(=O)[C@H](Cc3cccc(C(=O)O)c3)NC(=O)[C@H](CC(=O)O)NC(=O)C3(CCCC=CCCCOC(=O)N4CC[C@@](C(=O)N[C@@H](Cc5ccccc5C(F)(F)F)C(=O)N[C@@H](Cc5csc6ccccc56)C(=O)N[C@@H](C)C(N)=O)(C4)NC(=O)[C@H](CC(C)C)NC(=O)[C@H](Cc4ccccc4)NC(=O)[C@H](C)NC2=O)CCCC=CC[C@]2(CCCN2C(C)=O)C(=O)N[C@@H](CC(=O)O)C(=O)N[C@@H](CC(C)(C)C)C(=O)N3)CC1` (stereo partly drawn) [I-2319, Ac-PL3-Asp-Npg-B5-Asp-3COOHF-[AcPpz]GlnR-Ala-Phe-Leu-PyrS2-2F3MeF-BztA-Ala-NH2], the IC50 in assay [3] was 5 nM; in assay [1] (setting [5]), 1 µM; in assay [2] (setting [4]), 1700 nM; with COLO320DM cells (absolute IC50), more than 20000 nM.

On to `CC(=O)N1CCC[C@]12CC=CCCCC1(CCCC=CCCCOC(=O)N3CC[C@@](C(=O)N[C@@H](Cc4ccccc4C(F)(F)F)C(=O)N[C@@H](Cc4csc5ccccc45)C(=O)N[C@@H](CO)C(N)=O)(C3)NC(=O)[C@H](CC(C)C)NC(=O)[C@H](Cc3ccccc3)NC(=O)[C@H](C)NC(=O)[C@H](C)NC(=O)[C@H](Cn3cc(CC(C)(C)C(=O)O)nn3)NC(=O)[C@H](CC(=O)O)NC1=O)NC(=O)[C@H](CC(C)(C)C)NC(=O)[C@H](CC(=O)O)NC2=O` (stereo partly drawn) [I-2372, Ac-PL3-Asp-Npg-B5-Asp-[CH2CMe2CO2H]TriAzDap-Ala-Ala-Phe-Leu-PyrS2-2F3MeF-BztA-Ser-NH2], for which the IC50 came out at 5 nM in assay [3], 2.6 µM in assay [1] (setting [5]), 2100 nM in assay [2] (setting [4]) and 7000 nM with COLO320DM cells (absolute IC50).

`CC(=O)N1CCC[C@]12CC=CCCCC1(CCCC=CCCCOC(=O)N3CC[C@@](C(=O)N[C@@H](Cc4ccsc4)C(=O)N[C@@H](Cc4csc5ccccc45)C(=O)N[C@@H](CO)C(=O)N[C@@H](C)C(N)=O)(C3)NC(=O)[C@H](CO)NC(=O)[C@H](Cc3ccccc3)NC(=O)[C@H](C)NC(=O)C(C)(C)NC(=O)[C@H](Cc3cccc(C(=O)O)c3)NC(=O)[C@H](CC(=O)O)NC1=O)NC(=O)[C@H](CC(C)(C)C)NC(=O)[C@H](CC(=O)O)NC2=O` (stereo partly drawn) [I-2577, Ac-PL3-Asp-Npg-B5-Asp-3COOHF-Aib-Ala-Phe-Ser-PyrS2-3Thi-BztA-Ser-Ala-NH2]: the IC50 in assay [3] was 7 nM; in assay [1] (read-out: NanoBRET Abs IC50), 2.7 µM; in the assay with COLO320DM cells it was 9500 nM.

For `CC(=O)NCCCC[C@@H]1NC(=O)[C@H](Cc2ccccc2)NC(=O)[C@H](C)NC(=O)C(C)(C)NC(=O)[C@H](Cc2cccc(C(=O)O)c2)NC(=O)[C@H](CC(=O)O)NC(=O)C2(CCCC=CCCCOC(=O)N3CC[C@@](C(=O)N[C@@H](Cc4ccccc4C(F)(F)F)C(=O)N[C@@H](Cc4csc5ccccc45)C(=O)N[C@@H](C)C(=O)N[C@@H](C)C(N)=O)(C3)NC1=O)CCCC=CC[C@]1(CCCN1C(C)=O)C(=O)N[C@@H](CC(=O)O)C(=O)N[C@@H](CC(C)(C)C)C(=O)N2` (stereo partly drawn) [I-2579, Ac-PL3-Asp-Npg-B5-Asp-3COOHF-Aib-Ala-Phe-AcLys-PyrS2-2F3MeF-BztA-Ala-Ala-NH2], the IC50 in assay [3] turned out to be 41 nM; in assay [1] (read-out: NanoBRET Abs IC50) it was 4.7 µM; in the assay with COLO320DM cells it was 15300 nM.

Values taken from patent US20240116985A1, “STAPLED PEPTIDES AND METHODS THEREOF” (priority 2020, published 2024).
